{"source": "patent US4980283A", "about": "“Renin-inhibitory pepstatin phenyl derivatives” (Merck & Co., Inc., priority 1989, dated 1990)", "key": {"[1]": {"test_system": "renin enzyme prepared from hog kidney", "experiment": "Renin assay (solid phase radioimmunoassay of angiotensin I)", "assay_type": "biochemical", "conditions": "ratio of renin I50 to pepsin I50", "method": "The compound of Example 1 was evaluated against renin, employing a solid phase radioimmunossay adapted and modified from the assay of Ikedo et al., W. of Clinical Endocrinology and Metabolism, 54, 423-428, 1982), and pepsin assays as illustrated below:\nTen μl of the test inhibitor/broth extract from Example 1 was mixed with 5 μl of 0.11M phenylmethylsulfonyl fluoride and 0.25 ml of 0.1M potassium phosphate buffer, pH 7.0, containing 0.05% sodium azide and one mg/ml of bovine serum albumin. Twenty μl of 2 μg renin enzyme prepared from hog kidney was added and the mixture was incubated at 37° C. for 20 minutes. The enzyme reaction was initiated by adding 20 μl of substrate solution which was prepared by dissolving 4 mg of angiotensinogen in 4 ml of 0.1M potassium phosphate buffer, pH 7.0, containing 0.05% sodium azide and 1 mg/ml of BSA.\nAfter 20 minutes' incubation at 37° C., the enzyme reaction was stopped by the addition of 100 μl of ^125 I-angiotensin I tracer-pepstatin. […] Two ml of water was then added to each tube and the solution was aspirated, with the tube with the ball being counted in a γ-counter.\nThe activity of the test compound was calculated based on the standard curve of known amount of angiotensin I."}, "hog renin": {"test_system": "hog renin", "conditions": "after the injection of hog renin into nephrectomized rats; cited from earlier work"}}, "note": "Square brackets hold non-standard residues; d marks the D form. Peptide text beside a SMILES is read from it. * marks the point of attachment. Sta = CC(C)C[C@H](N)[C@@H](O)CC(=O)O; Isovaleryl = CC(C)CC(=O)*", "data": [{"compound": "CC(C)CC(=O)N[C@H](C(=O)N[C@H](C(=O)N[C@@H](CC(C)C)[C@@H](O)CC(=O)N[C@@H](C)C(=O)N[C@@H](CC(C)C)[C@@H](O)CC(=O)O)C(C)C)C(C)C", "note": "[Pepstatin A] (Isovaleryl-VV[Sta]A[Sta]-OH)", "values": [{"measurement": "I50 ratio of renin/pepsin", "setting": "[1]", "result": 1160}, {"measurement": "blood pressure in vivo", "setting": "hog renin", "result": "reduces blood pressure"}]}]}
